Assays:
Type in all cases: in vivo
[1] = test system: Echinochloa crus-galli (L.) P. Beauv. var. formosensis Ohwi; test: Test for Herbicidal Effect in Flooding Treatment (#1), ECHDG; conditions: for ECHDG #1 herbicidal effect (growth inhibition grade): flooding treatment at seeding, dose 2 kg/ha, visual observation on day 21; for ECHDG #1 herbicidal effect (growth inhibition rating 0-5): flooding treatment #1
Procedure, shortened: (§1)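 Sieved soil in cups was flooded and left 24 h before weed seeds were sown. Compounds in acetone, diluted with Tween 80-containing water, were dropped over the whole surface at 2 kg/ha. After 21 days in a glasshouse, growth inhibition was scored visually from 0 (<10%) to 5 (≥90% or complete withering).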

[2] = test system: Scirpus juncoides; test: Test for Herbicidal Effect in Flooding Treatment (#1), SCIJU; conditions: for SCIJU #1 herbicidal effect (growth inhibition grade): flooding treatment at seeding, dose 2 kg/ha, visual observation on day 21; for SCIJU #1 herbicidal effect (growth inhibition rating 0-5): flooding treatment #1
Procedure, shortened: as §1

[3] = test system: Monochoria vaginalis; test: Test for Herbicidal Effect in Flooding Treatment (#1), MONVA; conditions: for MONVA #1 herbicidal effect (growth inhibition grade): flooding treatment at seeding, dose 2 kg/ha, visual observation on day 21; for MONVA #1 herbicidal effect (growth inhibition rating 0-5): flooding treatment #1
Description: (#1) Test for Herbicidal Effect in Flooding Treatment: Styrol cups each having an opening diameter of 8 cm (about 52 cm^2) were respectively filled with soil (45 ml) which had been passed through a sieve (2 mm). Water (about 115 ml) was mixed with the soil such that the soil was flooded. After the soil stood still for 24 hours, Monochoria vaginalis, Echinochloa crus-galli (L.) P. Beauv. var. formosensis Ohwi, Cyperus difformis (umbrella sedge), and Scirpus juncoides were seeded. Each of the compounds of the present invention was dissolved in acetone, and the obtained product was then diluted with water containing Tween 80®. Each of the resultant chemical solutions was dropped on the entire surface of an associated one of treatment sections, so that each section was treated with 1 ml of the respective chemical solution (a dose of 2 kg/ha). After the treatment, the plants were grown in a glasshouse. On day 21, a survey was conducted on the herbicidal activity by visual observation, and evaluation was made according to the following criteria. 0: Growth inhibition effect is less than 10%. 1: Growth inhibition effect is equal to or greater than 10%, and less than 30%. 2; Growth inhibition effect is equal to or greater than 30%, and less than 50%. 3: Growth inhibition effect equal to or greater than 50%, and less than 70%. 4: Growth inhibition effect is equal to or greater than 70%, and less than 90%. 5: Growth inhibition effect is equal to or greater than 90%, or complete withering is achieved. ECHDG=Echinochloa crus-galli (L.) P. Beauv. var. formosensis Ohwi, MONVA=Monochoria vaginalis, SCIJU=Scirpus juncoides, CYMIC=Cyperus microiria.

[4] = test system: Echinochloa crus-galli (L.) P. Beauv. var. formosensis Ohwi; test: Test for Herbicidal Effect in Flooding Treatment (#2), ECHDG at 2-2.5 leaf stage; conditions: for ECHDG (2-2.5L) #2 herbicidal effect (growth inhibition grade): flooding treatment at 2-2.5 leaf stage, dose 0.2 kg/ha, visual observation on day 21; for ECHDG (2-2.5L) #2 herbicidal effect (growth inhibition rating 0-5): flooding treatment #2, 2-2.5 leaf stage
Procedure, shortened: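 Flooded muddy soil was seeded with the weed, and at 2–2.5 leaf stage compound in acetone/Tween 80 water was dropped on the water surface at 0.2 kg/ha. Plants were kept in a glasshouse and scored visually on day 21 from 0 (<10% growth inhibition) to 5 (≥90% or complete withering).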

SMILES	ECHDG #1 herbicidal effect (growth inhibition grade) [1]	SCIJU #1 herbicidal effect (growth inhibition grade) [2]	MONVA #1 herbicidal effect (growth inhibition grade) [3]	ECHDG (2-2.5L) #2 herbicidal effect (growth inhibition grade) [4]	ECHDG #1 herbicidal effect (growth inhibition rating 0-5) [1]	SCIJU #1 herbicidal effect (growth inhibition rating 0-5) [2]	MONVA #1 herbicidal effect (growth inhibition rating 0-5) [3]	ECHDG (2-2.5L) #2 herbicidal effect (growth inhibition rating 0-5) [4]
O=S(=O)(Cc1ccccc1OCC(F)(F)F)c1ncc(Cl)s1 [Compound 1C-53]	5 (Growth inhibition effect is equal to or greater than 90%, or complete withering is achieved)	5 (Growth inhibition effect is equal to or greater than 90%, or complete withering is achieved)	5 (Growth inhibition effect is equal to or greater than 90%, or complete withering is achieved)	5 (Growth inhibition effect is equal to or greater than 90%, or complete withering is achieved)	–	–	–	–
O=S(=O)(Cc1c(F)cccc1OCC(F)(F)C(F)F)c1ncc(Cl)s1 [Compound 1C-60, 5-chloro-2-{[2-(2,2,3,3-tetrafluoropropoxy)-6-fluorophenyl][methanesulfonyl]}-1,3-thiazole]	5 (Growth inhibition effect is equal to or greater than 90%, or complete withering is achieved)	5 (Growth inhibition effect is equal to or greater than 90%, or complete withering is achieved)	5 (Growth inhibition effect is equal to or greater than 90%, or complete withering is achieved)	5 (Growth inhibition effect is equal to or greater than 90%, or complete withering is achieved)	–	–	–	–
[O-][S+](Cc1c(F)cccc1OCC(F)(F)C(F)F)c1ncc(Cl)s1 (stereo not drawn) [Compound 1B-13]	–	–	–	–	5 (Growth inhibition effect is equal to or greater than 90%, or complete withering is achieved)	5 (Growth inhibition effect is equal to or greater than 90%, or complete withering is achieved)	5 (Growth inhibition effect is equal to or greater than 90%, or complete withering is achieved)	2 (Growth inhibition effect is equal to or greater than 30%, and less than 50%)
COc1cccc(Cl)c1C[S+]([O-])c1ncc(Cl)s1 (stereo not drawn) [Compound 1B-1]	–	–	–	–	5 (Growth inhibition effect is equal to or greater than 90%, or complete withering is achieved)	4 (Growth inhibition effect is equal to or greater than 70%, and less than 90%)	3 (Growth inhibition effect equal to or greater than 50%, and less than 70%)	4 (Growth inhibition effect is equal to or greater than 70%, and less than 90%)
O=S(=O)(Cc1c(OCC(F)F)cccc1C(F)(F)F)c1ncc(Cl)s1 [Compound 1C-52]	5 (Growth inhibition effect is equal to or greater than 90%, or complete withering is achieved)	5 (Growth inhibition effect is equal to or greater than 90%, or complete withering is achieved)	5 (Growth inhibition effect is equal to or greater than 90%, or complete withering is achieved)	5 (Growth inhibition effect is equal to or greater than 90%, or complete withering is achieved)	–	–	–	–
[O-][S+](Cc1c(F)cccc1OC(F)F)c1ncc(Br)s1 (stereo not drawn) [Compound 1B-19]	–	–	–	–	5 (Growth inhibition effect is equal to or greater than 90%, or complete withering is achieved)	5 (Growth inhibition effect is equal to or greater than 90%, or complete withering is achieved)	5 (Growth inhibition effect is equal to or greater than 90%, or complete withering is achieved)	5 (Growth inhibition effect is equal to or greater than 90%, or complete withering is achieved)
O=S(=O)(Cc1c(F)cccc1OCCC(F)(F)F)c1ncc(Cl)s1 [Compound 1C-58]	5 (Growth inhibition effect is equal to or greater than 90%, or complete withering is achieved)	5 (Growth inhibition effect is equal to or greater than 90%, or complete withering is achieved)	5 (Growth inhibition effect is equal to or greater than 90%, or complete withering is achieved)	5 (Growth inhibition effect is equal to or greater than 90%, or complete withering is achieved)	–	–	–	–
O=S(=O)(Cc1c(F)cccc1OC(F)F)c1ncc(Br)s1 [Compound 1C-153]	5 (Growth inhibition effect is equal to or greater than 90%, or complete withering is achieved)	5 (Growth inhibition effect is equal to or greater than 90%, or complete withering is achieved)	5 (Growth inhibition effect is equal to or greater than 90%, or complete withering is achieved)	5 (Growth inhibition effect is equal to or greater than 90%, or complete withering is achieved)	–	–	–	–
[2H]C([2H])(c1c(Cl)cccc1OC(F)(F)F)S(=O)(=O)c1ncc(Cl)s1 [Compound 1C-133]	5 (Growth inhibition effect is equal to or greater than 90%, or complete withering is achieved)	5 (Growth inhibition effect is equal to or greater than 90%, or complete withering is achieved)	5 (Growth inhibition effect is equal to or greater than 90%, or complete withering is achieved)	5 (Growth inhibition effect is equal to or greater than 90%, or complete withering is achieved)	–	–	–	–
[2H]C([2H])(c1c(Cl)ccc(OC)c1F)S(=O)(=O)c1ncc(Cl)s1 [Compound 1C-136]	5 (Growth inhibition effect is equal to or greater than 90%, or complete withering is achieved)	5 (Growth inhibition effect is equal to or greater than 90%, or complete withering is achieved)	5 (Growth inhibition effect is equal to or greater than 90%, or complete withering is achieved)	5 (Growth inhibition effect is equal to or greater than 90%, or complete withering is achieved)	–	–	–	–
[2H]C([2H])(c1c(Cl)ccc(OC)c1Cl)S(=O)(=O)c1ncc(Cl)s1 [Compound 1C-137]	5 (Growth inhibition effect is equal to or greater than 90%, or complete withering is achieved)	5 (Growth inhibition effect is equal to or greater than 90%, or complete withering is achieved)	5 (Growth inhibition effect is equal to or greater than 90%, or complete withering is achieved)	5 (Growth inhibition effect is equal to or greater than 90%, or complete withering is achieved)	–	–	–	–
[2H]C([2H])(c1c(F)cccc1OC(F)F)S(=O)(=O)c1ncc(Cl)s1 [Compound 1C-131]	5 (Growth inhibition effect is equal to or greater than 90%, or complete withering is achieved)	5 (Growth inhibition effect is equal to or greater than 90%, or complete withering is achieved)	5 (Growth inhibition effect is equal to or greater than 90%, or complete withering is achieved)	5 (Growth inhibition effect is equal to or greater than 90%, or complete withering is achieved)	–	–	–	–

Source: patent US20200060276A1, “THIAZOLE COMPOUND AND HERBICIDE” (OAT Agrio Co., Ltd., priority 2017, published 2020)
